Results reported in ChEMBL document CHEMBL1201862, “PubChem BioAssay data set” (2004).
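The compound was tested at five concentrations on cells cultured in 96-well plates, with a 48-hour exposure period. At the GI50, growth is halved.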 The source made the active and inactive calls. No stated cut-off is given here; in the data, active = GI50 up to about 1.1 µM and inactive = higher.

Key:
Experiment in all cases: DTP human tumour cell line panel, 48 h
A498 = test system: A498
A549 = test system: A549
CCRF-CEM = test system: CCRF-CEM
DLD-1 = test system: DLD-1
EKVX = test system: EKVX
HCC 2998 = test system: HCC 2998
IGROV-1 = test system: IGROV-1
K562 = test system: K562
KM12 = test system: KM12
MOLT-4 = test system: MOLT-4
RPMI-8226 = test system: RPMI-8226
SF-268 = test system: SF-268
SF-539 = test system: SF-539
SK-MEL-28 = test system: SK-MEL-28
SK-MEL-2 = test system: SK-MEL-2
SK-OV-3 = test system: SK-OV-3
SNB-19 = test system: SNB-19
SW-620 = test system: SW-620
UO-31 = test system: UO-31
SR = test system: SR

Measured: GI50

C=C1C(=O)OC2C=C(C)CC3C=C(CCC=C(C)CCC12)C(=O)O3 (stereo unspecified)
inactive: A498 73.1 µM | A549 99.3 µM | CCRF-CEM 16.5 µM | DLD-1 54.5 µM | EKVX 62.4 µM | HCC 2998 58.7 µM | IGROV-1 48 µM | K562 55.8 µM | KM12 52.7 µM | MOLT-4 54 µM | RPMI-8226 44.9 µM | SF-268 61.8 µM | SF-539 84.5 µM | SK-MEL-28 58.1 µM | SK-MEL-2 53.3 µM | SK-OV-3 121 µM | SNB-19 122 µM | SW-620 31 µM | UO-31 105 µM

C=CCNC(=O)CN(CC(=O)OC)C1CCCCC1N(CC(=O)OC)CC(=O)OC (stereo unspecified)
inactive: A498 > 100 µM | A549 > 100 µM | CCRF-CEM > 100 µM | EKVX > 100 µM | HCC 2998 70 µM | IGROV-1 > 100 µM | K562 > 100 µM | KM12 > 100 µM | MOLT-4 > 100 µM | RPMI-8226 > 100 µM | SF-268 > 100 µM | SF-539 > 100 µM | SK-MEL-28 > 100 µM | SK-MEL-2 > 100 µM | SK-OV-3 > 100 µM | SNB-19 > 100 µM | SW-620 > 100 µM | UO-31 > 100 µM

CC(C)CNC1=NCC(C)S1 (stereo unspecified)
inactive: A498 > 100 µM | A549 > 100 µM | CCRF-CEM > 100 µM | EKVX > 100 µM | HCC 2998 > 100 µM | IGROV-1 > 100 µM | K562 > 100 µM | KM12 > 100 µM | MOLT-4 > 100 µM | RPMI-8226 > 100 µM | SF-268 74.8 µM | SF-539 > 100 µM | SK-MEL-28 > 100 µM | SK-MEL-2 > 100 µM | SK-OV-3 > 100 µM | SNB-19 > 100 µM | SR > 100 µM | SW-620 > 100 µM | UO-31 79.3 µM

O=C1C(Cl)N(c2ccccc2Cl)C1c1c[nH]c2ccccc12 (stereo unspecified)
inactive: A549 > 100 µM | CCRF-CEM > 100 µM | EKVX > 100 µM | IGROV-1 > 100 µM | K562 > 100 µM | KM12 > 100 µM | MOLT-4 > 100 µM | RPMI-8226 > 100 µM | SF-268 > 100 µM | SF-539 > 100 µM | SK-MEL-28 > 100 µM | SK-MEL-2 > 100 µM | SK-OV-3 > 100 µM | SNB-19 > 100 µM | SR > 100 µM | SW-620 > 100 µM | UO-31 > 100 µM

CNC(=O)N(C)COC
inactive: A498 > 100 µM | A549 > 100 µM | CCRF-CEM > 100 µM | DLD-1 > 100 µM | EKVX > 100 µM | HCC 2998 > 100 µM | IGROV-1 > 100 µM | KM12 > 100 µM | MOLT-4 > 100 µM | RPMI-8226 > 100 µM | SF-268 > 100 µM | SF-539 > 100 µM | SK-MEL-28 > 100 µM | SK-MEL-2 > 100 µM | SK-OV-3 > 100 µM | SNB-19 > 100 µM | SR > 100 µM | SW-620 > 100 µM | UO-31 > 100 µM

C#CC[N+](CCO)(CCO)CCCCCCCCCCCCCCCCCC
inactive: A498 17.2 µM | A549 15.7 µM | CCRF-CEM 2.03 µM | DLD-1 9.25 µM | EKVX 21.7 µM | HCC 2998 11.5 µM | IGROV-1 2.18 µM | K562 5.24 µM | KM12 3.55 µM | MOLT-4 2.91 µM | RPMI-8226 3.27 µM | SF-268 8.69 µM | SF-539 11.4 µM | SK-MEL-28 16.5 µM | SK-MEL-2 16.4 µM | SK-OV-3 17.6 µM | SNB-19 5.92 µM | SW-620 15.7 µM | UO-31 15.1 µM
